Key:
tumor = test: Combination with bleomycin: tumor growth and life span; conditions: in vivo
Excerpt: As for interferons, interleucins and other known immunomoludatory materials, the efficacy of the pharmaceutical preparations of the present invention is restricted by the basic capacity of the immune system to recognize and attack cancer cells. However, the efficacy may be enhanced when the pharmaceutical preparations are combined with other antitumor drugs.

[1] = system: human and mouse lymphocytes; test: Active principle: stimulation of lymphocytes' cytotoxic anticancer activity in vitro; format: cell-based; conditions: comparative analysis of minimum active concentrations

Row | Molecule | Effect on tumor growth and life span (tumor) | Concentration to enhance cancer cell destruction relative to the effective concentration of the active principle [1]
1 | bleomycin | much less effective | 
2 | NK-lysin (protein, UniProt P22749 23-145, looked up, Human cytolitic peptide which directly kills the target cells) Granulysin: RLSPEYYDLARAHLRDEEKSCPCLAQEGPQGDLLTKTQELGRDYRTCLTIVQKLKKMVDKPTQRSVSNAATRVCRTGRSRWRDVCRNFMRRYQSRVTQGLVAGETAQQICEDLRLCIPSTGPL |  | more than a million times

From US6337093B1 (priority 1998, dated 2002)
